The values below come from doi:10.1101/2023.04.09.536153v2, “Reinstating targeted protein degradation with DCAF1 PROTACs in CRBN PROTAC resistant settings” (biorxiv, 2023).

The target of assay [1] is T1, BTK kinase domain (389-659) (Homo sapiens, UniProt Q06187).
T1 construct: kinase domain 389-659; His-PreScission (with or without Avi) construct, Sf9 cells
Briefly: kinase inhibition, Caliper mobility shift. As to conditions: 0.047 mM ATP, 0.002 mM peptide, pH 7.5, 32 °C, 60 min. Format: biochemical. An excerpt: kinase inhibition, Caliper mobility shift on BTK kinase domain (389-659) | weaker affinity for BTK of the DBt-6 and DBt-8 was additionally corroborated by enzymatic inhibition

Assay [2] has as its target T2, BTK-NanoLuc (Homo sapiens, UniProt Q06187).
T2 construct: full-length BTK fused to NanoLuc (pLenti6 BTK-Nanoluc), transiently expressed in HEK293-A cells
Description: NanoBRET tracer displacement. Format: cell-based. The settings on record: digitonin-permeabilized cells, 0.5 µM Tracer-05, 2 h; ATP site. (In general: BRET reads energy transfer from a luciferase to a nearby fluorophore.)

For assay [3], the target named is T3, DCAF1(1073-1399)_E1398S (WDR domain, Avi/His-tagged) (Homo sapiens, UniProt Q9Y4B6, E1398S).
T3 construct: WDR (WD40) domain 1073-1399 with E1398S; Avi and His tags (N-terminal Avi, C-terminal His for SPR; C-terminal Avi-His for TR-FRET), biotinylated by BirA; Sf9 cells
Briefly: TR-FRET competition with bodipy ligand. In kind it is binding. The settings on record: 30 mM phosphate pH 7.4, 140 mM NaCl, 22 °C, no BTK added.

The target in assay [4] is T3, DCAF1(1073-1399)_E1398S (WDR domain, Avi/His-tagged). Briefly: fluorescence polarization. In kind it is binding. (In fluorescence polarisation assays a small probe gives low polarisation when free and higher when bound to something large.)

Where two headings read alike, the source gives them in different places.

T3 sequence (Q9Y4B6 1073-1399 E1398S): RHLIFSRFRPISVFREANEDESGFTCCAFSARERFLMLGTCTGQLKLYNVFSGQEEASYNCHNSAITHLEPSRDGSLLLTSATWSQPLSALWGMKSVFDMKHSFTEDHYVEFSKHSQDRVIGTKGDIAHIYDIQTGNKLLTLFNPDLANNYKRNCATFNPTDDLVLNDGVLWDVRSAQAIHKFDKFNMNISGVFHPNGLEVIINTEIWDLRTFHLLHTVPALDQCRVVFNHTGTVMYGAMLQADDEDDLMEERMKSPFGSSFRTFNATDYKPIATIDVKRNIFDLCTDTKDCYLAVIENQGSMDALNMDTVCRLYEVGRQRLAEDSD
T2 sequence (Q06187 2-659): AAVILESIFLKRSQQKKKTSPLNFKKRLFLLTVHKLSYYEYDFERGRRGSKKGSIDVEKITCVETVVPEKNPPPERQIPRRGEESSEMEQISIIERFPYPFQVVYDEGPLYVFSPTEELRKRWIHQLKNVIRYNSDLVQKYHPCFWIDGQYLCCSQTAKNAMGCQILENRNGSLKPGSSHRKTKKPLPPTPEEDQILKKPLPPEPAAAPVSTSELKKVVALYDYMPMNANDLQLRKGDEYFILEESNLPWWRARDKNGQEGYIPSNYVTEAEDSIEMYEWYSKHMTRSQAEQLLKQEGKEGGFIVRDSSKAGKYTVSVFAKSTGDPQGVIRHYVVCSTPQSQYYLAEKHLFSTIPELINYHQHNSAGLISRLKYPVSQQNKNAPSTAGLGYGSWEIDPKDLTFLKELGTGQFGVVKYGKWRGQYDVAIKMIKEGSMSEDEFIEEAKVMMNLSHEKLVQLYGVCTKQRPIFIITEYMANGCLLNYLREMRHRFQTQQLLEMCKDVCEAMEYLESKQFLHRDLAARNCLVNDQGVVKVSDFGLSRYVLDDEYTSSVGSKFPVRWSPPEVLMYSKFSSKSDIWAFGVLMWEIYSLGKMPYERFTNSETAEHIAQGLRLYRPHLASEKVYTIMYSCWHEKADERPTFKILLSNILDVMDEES
T1 sequence (Q06187 389-659): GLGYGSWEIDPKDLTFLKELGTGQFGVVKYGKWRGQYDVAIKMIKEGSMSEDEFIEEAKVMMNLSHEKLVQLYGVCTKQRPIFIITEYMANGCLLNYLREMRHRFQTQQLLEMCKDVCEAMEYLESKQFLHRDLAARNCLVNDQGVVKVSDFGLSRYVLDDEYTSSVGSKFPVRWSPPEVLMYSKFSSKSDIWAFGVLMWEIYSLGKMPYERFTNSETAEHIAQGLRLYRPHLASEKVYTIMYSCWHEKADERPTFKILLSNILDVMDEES

On to `Cc1c(NC(=O)c2ccc(C(C)(C)O)cc2F)cc(F)cc1-c1ncnc2[nH]c(-c3ccc(CNCCOCCOCC(=O)N4CCCC(C(=O)N5CCN(c6ccc7c(NCCN)nc(C8(c9ccc(Cl)cc9)CCCCC8)nc7c6)CC5)C4)cc3)cc12` (centres unmarked) [DBt-6], for which the IC50 in assay [1] was found to be 510 nM; in assay [2], 2350 nM; in assay [3] (read-out: IC50), 56 ± 37 nM. With `Cc1cc(C)n2c1C=C1C=CC(CCC(=O)N3CCN(c4ccc5c(NCCN)nc(C(C)(C)c6ccc(Cl)cc6)nc5c4)CC3)=[N+]1[B-]2(F)F` [bodipy labelled ligand], the equilibrium dissociation constant (Kd) in assay [4] was found to be 69 ± 6 nM.

Turning to `CC(=O)N1CCN(c2ccc3c(NCCN)nc(C4(c5ccc(Cl)cc5)CCCCC4)nc3c2)CC1` [compound 13, VHF543], the IC50 entry in assay [3] is listed as “IC50 determined by DCAF1 TR-FRET for selected DCAF1 binders”.

The term IC50 denotes the midpoint of a concentration-inhibition curve. As a reminder, the Kd is the concentration at which binding is half-saturated. A lower Kd goes with higher affinity.
